From publication PMC4706532, “Diarylthiophenes as inhibitors of the pore-forming protein perforin” (Bioorganic & Medicinal Chemistry Letters, 2016)
≈ marks a conversion by molar mass, not a printed value.

Assays:
[1] = Plasma stability, mouse plasma; type: in vitro ADME; conditions: % parent remaining at 24 h, 37 °C
Method: (§1) Preliminary stability studies were carried out by incubation in human or mouse plasma at 37 °C with the percentage parent remaining measured at 24 h (Table 2). […] In mouse plasma the ratio of open to closed is 50:50%, while in human plasma this shifts to 90:10 due to the strong affinity of human serum albumin for the ring-opened form.[20] It is likely that the same phenomenon is operating in the present case and while not necessarily an issue for mouse studies, will need to be addressed in future work.
(§2) Incubation method - Mouse (CD-1, male) and human (pooled) plasma pH was adjusted to 7.4 with either 1M phosphoric acid or sodium hydroxide. Plasma was spiked with 100 uM of test compounds and divided into two parts; one part was immediately transferred to -80 °C (control), and the second part was incubated at 37 °C at 24 h.
(§3) At the end of the study duration, samples were transferred to -80 °C until ready to analyse by HPLC-DAD. On the day of analysis, control and incubated samples were thawed on wet ice and mixed.
(§4) Sample treatment for HPLC - 20 uL of samples were mixed with 80 uL (1:4 v/v) ice cold acetonitrile to precipitate the plasma proteins, centrifuged at 13,000 rpm for 5 min to obtain the clear supernatant. The supernatant was diluted with 0.01% formic acid– water (1:2 v/v) and 50 uL was injected onto the HPLC system (Agilent).
(§5) Calculation: The % loss was calculated based on peak area using the following formula: (peak area time “0”- peak area time “24h”)/peak area time “0” multiplied by 100. % Remaining = 100 - % loss.

[2] = Toxicity to KHYG-1 NK cells (Trypan blue exclusion); conditions: human
Method: (§6) The compounds were then evaluated for their ability to block the effect of perforin delivered by whole KHYG-1 NK cells (Table 2). Employing whole NK cells is a more rigorous model of conditions in vivo than the use of isolated recombinant protein since effector cell identification of the labelled target cell and formation of an immune synapse are required for perforin release. […] After co-incubation of inhibitor with KHYG-1 NK cells in medium for 30 min at room temperature, ^51Cr-labelled K562 leukaemia target cells were added and cell lysis evaluated after 4 h incubation at 37 °C by measuring ^51Cr release. […] Viable and dead cells were counted and percent viability calculated based on total cell count (for further details see Supplementary data). […] For the purposes of this work, compounds are classified as toxic if NK cell viability falls below 70%. This is due to the importance of CTLs and NK cells in the overall immunological response which means that it is essential that any pharmacological intervention allows rapid recovery of these cytotoxic effector cells for normal immunological function.
The toxicity assay was carried out in exactly the same manner as the killing assay above, but instead of adding the labelled K562 target cells, 100 μL of RPMI 0.1% BSA was added. Cells were incubated for 4 h at 37 °C and then washed ×3 in RPMI + 0.1% BSA. Cells were then re-suspended in 200 μL of complete medium and incubated for 18−24 h at 37 °C. Trypan blue was added to each well. Viable (clear) cells and total (clear + blue) cells were counted, and the percentage of viable cells was calculated compared to DMSO treated cell control (% viability).

[3] = tested on: perforin delivered by KHYG-1 NK cells; experiment: KHYG-1 cytotoxicity assay: lysis of K562 target cells by KHYG-1 NK cells (51Cr release); type: cell-based, human; conditions: for inhibition at 20 µM: Homo sapiens, KHYG-1 NK, read-out: KHYG-1 inhibition (% at 20 μM), compound 20 μM; for Activity against perforin delivered by whole KHYG-1 NK cells (in words): whole human NK cells, K562 targets
Method: as §6
KHYG-1 cells were washed and re-suspended in RPMI + 0.1% BSA at 4 × 10^5 cells/mL, and an amount of 50 μL of KHYG-1 cells was dispensed to each well of a 96-well V-bottom plate. RPMI (50 μL) + 0.1% BSA or 10% (final concentration) of serum was added to each well. Then test compounds were added to KHYG-1 cells at various concentrations up to 20 μM and incubated at room temperature for […]. 1 × 10^6 K562 target cells were labelled with 75 μCi ^51Cr in 200 μL of RPMI for 90 min at 37 °C. Cells were washed as described above and re-suspended in 5 mL of RPMI + 0.1% BSA. An amount of 50 μL of ^51Cr labelled K562 leukaemia target cells was added to each well of the KHYG-1 plate (effector/target 2:1) and incubated at 37 °C for 4 h. ^51Cr release was assayed using a Skatron harvesting press and radioactivity estimated on a Wallac Wizard 1470 automatic γ counter (Turku, Finland). The percentage of specific cytotoxicity was calculated using the following formula:
% specific lysis = […]
(maximum release - spontaneous release)
and expressed as the mean of triplicate assays ± standard error of the mean.

[4] = Plasma stability, human plasma; type: in vitro ADME; conditions: % parent remaining at 24 h, 37 °C
Method: as §1, §2, §3, §4, §5

[5] = Solubility in water; conditions: water
[6] = tested on: perforin; design: method as in earlier work; conditions: compound concentration 100 µM; cited from earlier work
[7] = biological target: T1, recombinant perforin (Mus musculus, UniProt P10820); design: method as in PMID 22244072; conditions: 2 vs HTS hit 1; cited from earlier work
T1 sequence (P10820 21-554): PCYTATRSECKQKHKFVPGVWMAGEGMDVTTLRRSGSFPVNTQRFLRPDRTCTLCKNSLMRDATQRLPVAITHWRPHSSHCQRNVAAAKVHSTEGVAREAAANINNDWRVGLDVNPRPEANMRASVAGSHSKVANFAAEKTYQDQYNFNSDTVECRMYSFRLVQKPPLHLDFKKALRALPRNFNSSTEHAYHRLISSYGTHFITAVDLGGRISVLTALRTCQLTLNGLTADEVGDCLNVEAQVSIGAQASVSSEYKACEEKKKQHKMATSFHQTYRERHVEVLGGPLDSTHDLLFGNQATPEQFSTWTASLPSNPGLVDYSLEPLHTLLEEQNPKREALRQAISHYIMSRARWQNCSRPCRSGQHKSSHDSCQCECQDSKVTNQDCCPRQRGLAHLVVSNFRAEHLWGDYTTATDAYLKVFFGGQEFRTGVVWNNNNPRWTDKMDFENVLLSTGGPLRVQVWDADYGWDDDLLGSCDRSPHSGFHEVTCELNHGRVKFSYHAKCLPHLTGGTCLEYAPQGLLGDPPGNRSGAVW

[8] = perforin-induced lysis of K562 target cells co-incubated with KHYG-1 human NK cells, vs untreated control

## O=C1OCc2cc(-c3ccc(-c4ccc(CO)cc4)s3)ccc21 [Compound 59]
[1]
  Plasma stability (% at 24 h) Mouse: 87%
[2]
  viability at 24 h, 20 µM: 79%
[3]; [8]
  inhibition at 20 µM: 13%
[3]
  Activity against perforin delivered by whole KHYG-1 NK cells (in words): poor or no activity
[4]
  Plasma stability (% at 24 h) Human: 73%

## NC(=O)c1ccc(-c2ccc(-c3ccc4c(c3)COC4=O)s2)cn1 [Compound 67]
[1]
  Plasma stability (% at 24 h) Mouse: 66%
[2]
  viability at 24 h, 20 µM: 82%
[3]; [8]
  inhibition at 20 µM: 80%
[3]
  Activity against perforin delivered by whole KHYG-1 NK cells (in words): excellent activity
[4]
  Plasma stability (% at 24 h) Human: 39%
[5]
  solubility: 0.204 µg/mL (≈ 0.606 µM)

## O=C1NC(=S)N/C1=C/c1ccc(-c2ccc3c(c2)COC3=O)o1 [Compound 1]
[6]
  Inhibition of perforin-mediated lysis of SRBC (in words): reproducibly inhibit

## NC(=O)c1ccc(-c2ccc(-c3ccc4c(c3)COC4=O)s2)cc1O [Compound 48]
[1]
  Plasma stability (% at 24 h) Mouse: 75%
[2]
  viability at 24 h, 20 µM: 92%
[3]; [8]
  inhibition at 20 µM: 20%
[3]
  Activity against perforin delivered by whole KHYG-1 NK cells (in words): poor or no activity
[4]
  Plasma stability (% at 24 h) Human: 49%
[5]
  solubility: 0.023 µg/mL (≈ 0.0655 µM)

## O=C1NC(=S)N/C1=C/c1ccc(-c2ccc3c(c2)COC3=O)s1 [Compound 2]
[7]
  Fold improvement in inhibition of isolated perforin protein function over 1: ~8 fold

## NC(=O)c1ccc(-c2ccc(-c3ccc4c(c3)COC4=O)s2)cc1 [Compound 23]
[1]
  Plasma stability (% at 24 h) Mouse: 75%
[2]
  viability at 24 h, 20 µM: 90%
[3]; [8]
  inhibition at 20 µM: 60%
[3]; compound 20 μM, perforin-induced lysis of K562 target cells co-incubated with KHYG-1 human NK cells, vs untreated control, 20 µM
  KHYG-1 inhibition (% at 20 μM): 63%
[3]
  Activity against perforin delivered by whole KHYG-1 NK cells (in words): excellent activity
[4]
  Plasma stability (% at 24 h) Human: 46%
